Assay results: patent US20160177395A1, “BIOMARKERS FOR THE PREDICTION OF RENAL INJURY” (priority 2007, published 2016)
“And” between values parts separate entries of the source, which are not always exact repeats. Identical values can stand only once. “Also recorded” adds a separate entry of the source.

Tests used:
[1] = tested on: kidney tissues of treated or untreated rats; experiment: Real-time qRT-PCR of signature amplicons, validation stage, labeled and un-labeled samples (Table 23); settings: for H31883_DB71_seg13 normalized qRT-PCR result / MUSCYCG1R_DB81_seg19-20 normalized qRT-PCR result / W41270_DB81_seg11 normalized qRT-PCR result: un-labeled sample, one line per animal; for AI045075_DB71_seg6 normalized qRT-PCR expression (Interferon stimulated exonuclease 20 (ISG20) transcript) / H31883_DB71_seg13 normalized qRT-PCR expression (Cyclin-G1 (CCNG1) transcript) / MUSCYCG1R_DB81_seg19-20 normalized qRT-PCR expression / W41270_DB81_seg11 normalized qRT-PCR expression (tumor necrosis factor receptor superfamily, member 12a transcript) / W64472_DB81_seg2 normalized qRT-PCR expression (Interferon stimulated exonuclease 20 (ISG20) transcript) / W83813_DB81_seg27 normalized qRT-PCR expression: un-labeled samples, kidney of individual male/female rats
In short: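 Each of four signature genes measured as wild-type and alternative-splice amplicons by qRT-PCR in treated or untreated rat kidney. Normalization was two-step: housekeeping-gene factor, then inter-plate correction from shared samples on a shuffled control plate; final values rescaled for display.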

rat kidney samples = experiment: Random-Forest classifiers applied to un-labeled samples of T1, T2, T3 and control (Table 30); settings: for Average 'Toxic' (%): average of the two classifiers
Procedure: To validate the optimal signature for classification of renal toxicity of a compound after five days of application a test of the signatory polynucleotide/gene expression in rat kidney samples consisting of tissues from rats exposed to three drug compounds and a single control group was carried out (Teva Pharmaceutical Industries, IL).
The two optimal classifiers (signatures described in Tables 26 and 27) were applied to the qRT-PCR reads of the un-labeled samples and their calls was used to assign a level of toxicity to each group and, eventually, each compound.
The classifiers described in Tables 26 and 27, were used for testing the un-labeled samples. Both classifiers were applied to the measurements of each sample, used the 30% bound from above, and the number of samples pass that bound in each group were summarized.

kidney = experiment: Renal histopathology of rats treated with T1, T2, T3; format: in vivo, rat
Procedure: Each group consisted of 6 male and 6 female rats. The additional groups consisted of 6 males and 6 female rats treated with control compound for a single day and for five days, as described in Table 24.
T2 “no observed effect level” (NOEL, i.e., the maximal dose at which no toxic effect is visible) is 15 mg/kg.
At autopsy, both kidneys of each animal were removed and each kidney was cross sectioned. Half of each kidney was sent to RNA extraction and analysis.

[2] = Ds1, Day1, oral gavage, female rat kidney
[3] = Ds1, Day1, oral gavage, male rat kidney
[4] = Ds1, Day5, oral gavage, female rat kidney
[5] = Ds1, Day5, oral gavage, male rat kidney
[6] = Ds2, Day1, oral gavage, female rat kidney
[7] = Ds2, Day1, oral gavage, male rat kidney
[8] = Ds2, Day5, oral gavage, female rat kidney
[9] = Ds2, Day5, oral gavage, male rat kidney

SMILES: CN(C)c1cccc2c1CCC2Nc1cc(=O)[nH]c(=O)[nH]1.Cl (stereo not shown) [T2]
- H31883_DB71_seg13 normalized qRT-PCR result [1, 2]: 0.183 and 0.213 and 0.29 and 0.387
- MUSCYCG1R_DB81_seg19-20 normalized qRT-PCR result [1, 2]: 0.54 and 0.419 and 0.836 and 0.49
- W41270_DB81_seg11 normalized qRT-PCR result [1, 2]: 0.492 and 0.468 and 1.072 and 0.969
- H31883_DB71_seg13 normalized qRT-PCR result [1, 3]: 0.955 and 0.798 and 0.931 and 1.182
- MUSCYCG1R_DB81_seg19-20 normalized qRT-PCR result [1, 3]: 0.98 and 0.709 and 1.059 and 1.253
- W41270_DB81_seg11 normalized qRT-PCR result [1, 3]: 0.801 and 0.791 and 1.076 and 1.477
- H31883_DB71_seg13 normalized qRT-PCR result [1, 4]: 0.865 and 0.922 and 0.961 and 0.824 and 1.303
- MUSCYCG1R_DB81_seg19-20 normalized qRT-PCR result [1, 4]: 0.771 and 1.02 and 1.923 and 1.232 and 0.94
- W41270_DB81_seg11 normalized qRT-PCR result [1, 4]: 0.464 and 0.532 and 0.616 and 0.572 and 0.773
- H31883_DB71_seg13 normalized qRT-PCR result [1, 5]: 0.11 and 0.209 and 0.27 and 0.299
- MUSCYCG1R_DB81_seg19-20 normalized qRT-PCR result [1, 5]: 1.566 and 1.449 and 1.516 and 1.237
- W41270_DB81_seg11 normalized qRT-PCR result [1, 5]: 1.445 and 1.42 and 1.258 and 1.447
- H31883_DB71_seg13 normalized qRT-PCR result [1, 6]: 0.289 and 0.365 and 0.32 and 0.444 and 0.254
- MUSCYCG1R_DB81_seg19-20 normalized qRT-PCR result [1, 6]: 2.008 and 0.857 and 3.044 and 2.152 and 0.71
- W41270_DB81_seg11 normalized qRT-PCR result [1, 6]: 1.104 and 0.741 and 1.73 and 1.211 and 0.666
- H31883_DB71_seg13 normalized qRT-PCR result [1, 7]: 0.773 and 0.595 and 0.741 and 0.777 and 0.725 and 0.614
- MUSCYCG1R_DB81_seg19-20 normalized qRT-PCR result [1, 7]: 1.006 and 0.729 and 0.541 and 1.015 and 0.588 and 0.471
- W41270_DB81_seg11 normalized qRT-PCR result [1, 7]: 1.462 and 0.692 and 0.656 and 1.23 and 0.866 and 0.837
- H31883_DB71_seg13 normalized qRT-PCR result [1, 8]: 0.269 and 0.354
- MUSCYCG1R_DB81_seg19-20 normalized qRT-PCR result [1, 8]: 0.799 and 3.003
- W41270_DB81_seg11 normalized qRT-PCR result [1, 8]: 0.554 and 1.029
- H31883_DB71_seg13 normalized qRT-PCR result [1, 9]: 0.615 and 1.022 and 0.962 and 0.626
- MUSCYCG1R_DB81_seg19-20 normalized qRT-PCR result [1, 9]: 1.338 and 0.831 and 0.83 and 0.878
- W41270_DB81_seg11 normalized qRT-PCR result [1, 9]: 0.899 and 1.446 and 0.623 and 1.049
- AI045075_DB71_seg6 normalized qRT-PCR expression (Interferon stimulated exonuclease 20 (ISG20) transcript) ([1]; dose Ds1, Day1, oral gavage): 1.308 and 0.744 and 1.159
- H31883_DB71_seg13 normalized qRT-PCR expression (Cyclin-G1 (CCNG1) transcript) ([1]; dose Ds1, Day1, oral gavage): 0.88 and 0.67 and 0.613 and 0.695 and 0.464 and 0.951 and 0.536 and 0.646 and 0.629 and 0.7 (2×)
- MUSCYCG1R_DB81_seg19-20 normalized qRT-PCR expression ([1]; dose Ds1, Day1, oral gavage): 0.938 and 0.555 and 0.115 and 0.859 and 0.124 and 0.888 and 0.267 and 0.157 and 0.47 and 0.126 and 0.51
- W41270_DB81_seg11 normalized qRT-PCR expression (tumor necrosis factor receptor superfamily, member 12a transcript) ([1]; dose Ds1, Day1, oral gavage): 0.481 and 0.662 and 0.473 and 0.76 and 0.474 and 0.876 and 0.959 and 0.518 and 0.823 and 3.38 and 0.623
- W64472_DB81_seg2 normalized qRT-PCR expression (Interferon stimulated exonuclease 20 (ISG20) transcript) ([1]; dose Ds1, Day1, oral gavage): 1.863 and 0.632 and 1.305
- W83813_DB81_seg27 normalized qRT-PCR expression ([1]; dose Ds1, Day1, oral gavage): 0.305 and 0.666 and 0.84
- AI045075_DB71_seg6 normalized qRT-PCR expression (Interferon stimulated exonuclease 20 (ISG20) transcript) ([1]; dose Ds1, Day5, oral gavage): 1.016 and 1.11
- H31883_DB71_seg13 normalized qRT-PCR expression (Cyclin-G1 (CCNG1) transcript) ([1]; dose Ds1, Day5, oral gavage): 1.884 and 1.539 and 1.163 and 1.329 and 1.66 and 1.079 and 0.936 and 0.978 and 1.439 and 1.149 and 2.147
- MUSCYCG1R_DB81_seg19-20 normalized qRT-PCR expression ([1]; dose Ds1, Day5, oral gavage): 0.107 and 0.113 and 1.399 and 1.006 and 0.148 and 0.127 and 0.736 and 1.386 and 1.293 and 0.172 and 0.179
- W41270_DB81_seg11 normalized qRT-PCR expression (tumor necrosis factor receptor superfamily, member 12a transcript) ([1]; dose Ds1, Day5, oral gavage): 0.233 and 0.493 and 0.626 and 1.149 and 0.321 and 0.477 and 0.83 and 1.524 and 1.111 and 0.397 and 0.337
- W64472_DB81_seg2 normalized qRT-PCR expression (Interferon stimulated exonuclease 20 (ISG20) transcript) ([1]; dose Ds1, Day5, oral gavage): 0.929 and 0.996
- W83813_DB81_seg27 normalized qRT-PCR expression ([1]; dose Ds1, Day5, oral gavage): 0.248 and 0.203
- AI045075_DB71_seg6 normalized qRT-PCR expression (Interferon stimulated exonuclease 20 (ISG20) transcript) ([1]; dose Ds2, Day1, oral gavage): 1.43
- H31883_DB71_seg13 normalized qRT-PCR expression (Cyclin-G1 (CCNG1) transcript) ([1]; dose Ds2, Day1, oral gavage): 0.832 and 0.773 and 0.635 and 0.722 and 0.618 and 0.999 and 0.602 and 0.522 and 1.006 and 1.079 and 0.84 and 0.762
- MUSCYCG1R_DB81_seg19-20 normalized qRT-PCR expression ([1]; dose Ds2, Day1, oral gavage): 0.211 and 0.531 and 0.505 and 0.585 and 0.475 and 0.661 and 0.197 and 0.458 and 0.167 and 0.192 and 0.14 and 0.111
- W41270_DB81_seg11 normalized qRT-PCR expression (tumor necrosis factor receptor superfamily, member 12a transcript) ([1]; dose Ds2, Day1, oral gavage): 1.747 and 1.016 and 0.424 and 0.589 and 0.545 and 0.528 and 0.384 and 0.577 and 1.729 and 1.125 and 0.594 and 0.92
- W64472_DB81_seg2 normalized qRT-PCR expression (Interferon stimulated exonuclease 20 (ISG20) transcript) ([1]; dose Ds2, Day1, oral gavage): 0.804
- W83813_DB81_seg27 normalized qRT-PCR expression ([1]; dose Ds2, Day1, oral gavage): 0.201
- AI045075_DB71_seg6 normalized qRT-PCR expression (Interferon stimulated exonuclease 20 (ISG20) transcript) ([1]; dose Ds2, Day5, oral gavage): 0.609 and 1.842 and 0.637
- H31883_DB71_seg13 normalized qRT-PCR expression (Cyclin-G1 (CCNG1) transcript) ([1]; dose Ds2, Day5, oral gavage): 1.386 and 0.676 and 1.01 and 1.128 and 1.161 and 1.146 and 1.057 and 0.942 and 1.256
- MUSCYCG1R_DB81_seg19-20 normalized qRT-PCR expression ([1]; dose Ds2, Day5, oral gavage): 0.345 and 0.169 and 0.513 and 0.148 and 0.185 and 0.997 and 0.746 and 0.686 and 0.655
- W41270_DB81_seg11 normalized qRT-PCR expression (tumor necrosis factor receptor superfamily, member 12a transcript) ([1]; dose Ds2, Day5, oral gavage): 1.186 and 0.308 and 0.497 and 0.711 and 1.237 and 0.857 and 0.788 and 0.457 and 0.668
- W64472_DB81_seg2 normalized qRT-PCR expression (Interferon stimulated exonuclease 20 (ISG20) transcript) ([1]; dose Ds2, Day5, oral gavage): 0.731 and 1.178 and 0.485
- W83813_DB81_seg27 normalized qRT-PCR expression ([1]; dose Ds2, Day5, oral gavage): 0.601 and 0.555 and 0.354
- Average 'Toxic' (%) (rat kidney samples; Ds1 Day1 Female): 20%
- Average 'Toxic' (%) (rat kidney samples; Ds1 Day1 Male): 25%
- Average 'Toxic' (%) (rat kidney samples; Ds1 Day5 Female): 30%
- Average 'Toxic' (%) (rat kidney samples; Ds1 Day5 Male): 83%
- Average 'Toxic' (%) (rat kidney samples; Ds2 Day1 Female): 58.5%
- Average 'Toxic' (%) (rat kidney samples; Ds2 Day1 Male): 0%
- Average 'Toxic' (%) (rat kidney samples; Ds2 Day5 Female): 50%
- Average 'Toxic' (%) (rat kidney samples; Ds2 Day5 Male): 30%
- Toxicity conclusion from classifier calls (rat kidney samples; signatures of Tables 26 and 27, 30% bound): nephrotoxic agents
- Kidney histopathology findings (kidney; 50 mg/kg, after 7 days): direct cortical tubular toxicity; also recorded: multifocal, consisting of tubular basophilia, indicating regeneration following necrosis; also recorded: basophilic tubules in the cortex, indicating post-necrotic regeneration
- Time after which visible pathological damage was seen (kidney; rats): 7 days
- no observed effect level (NOEL) (kidney; rats): 15 mg/kg
- Renal damage (kidney; rats, dose and duration as in the value): renal damage after 7 days of treatment at the 50 mg/kg dose
